For assay [1], the system named is Plasmodium falciparum. The assay can be described thus: (§1) In vitro inhibition against Plasmodium falciparum. In kind it is functional, organism-based.
The subject of assay [2] is Plasmodium falciparum. The experiment in a line: Inhibitory activity against Chloroquine-resistant Plasmodium falciparum. In kind it is functional. To be noted: read-out: ED50 (the source's name).
The subject of assay [3] is Plasmodium falciparum. The experiment in a line: (§2) Inhibitory activity against Chloroquine-sensitive Plasmodium falciparum. In kind it is functional. To be noted: read-out: ED50 (the source's name).
Assay [4] deals with Plasmodium falciparum. The assay can be described thus: In vitro inhibition against Plasmodium falciparum; […]. In kind it is functional, organism-based.
In assay [5] the test system is Plasmodium falciparum. The description is as §2. In kind it is functional, organism-based.
The test system of assay [6] is Plasmodium falciparum. The experiment in a line: Inhibitory activity against chloroquine-resistant Plasmodium falciparum. In kind it is functional, organism-based.
In assay [7] the test system is Plasmodium falciparum. Described as §1. Type of assay: functional. To be noted: read-out: ED50 (the source's name).

For orientation: IC50 means the concentration needed to halve the response being measured. A low value points to greater potency.

`CC(C)(C)COO`: half-maximal inhibition in assay [1] (IC50) required 41000 nM.
Consider `CC(C)C12CCC(C)(CC1)OO2`, for which the figures for the EC50 in assay [2] and in assay [3] were 210 nM and 80 nM, respectively.
The compound `C[C@@H]1CC[C@H]2[C@@H](C)C(=O)O[C@@H]3O[C@@]4(C)CC[C@@H]1[C@]32OO4` [ARTEMISININ] gave an IC50 in assay [4] of 4 nM.
On to `CC(C)(C)OC(=O)OC1CCC2C[C@@H]3C=CC2(OO3)C1(C)C` (some centres not stated), for which the concentration for half-maximal inhibition (IC50) stood at 190 nM in assay [5] and 330 nM in assay [6].
For `CC1=C2[C@H]3OC(=O)[C@@H](C)[C@@H]3CC[C@@]2(C)C=CC1=O` [SANTONIN], in assay [7], the EC50 was 2800 nM.

These data come from ChEMBL document CHEMBL1124140, “Oxidants, oxidant drugs, and malaria” (J Med Chem, 1988).
